The text below walks through data of article PMC9913425, “Pentacyclic Triterpenoids-Based Ionic Compounds: Synthesis, Study of Structure–Antitumor Activity Relationship, Effects on Mitochondria and Activation of Signaling Pathways of Proliferation, Genome Reparation and Early Apoptosis” (Cancers, 2023).

Assay type in all cases: cell-based
In one test the test system is p53. Kind of test: Luminex xMAP panel, p53 protein content. The conditions noted are these: Jurkat cells; 12a 0.006 µM, 13d 0.004 µM per 100,000 cells; first 6 h.
The test system of test [1] is Jurkat cells. Put plainly: Apoptosis/necrosis induction (Annexin V Alexa Fluor488, 7AAD staining). The conditions noted are these: compound at IC50 concentration, incubation 2 h. A digest of the protocol:
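Jurkat cells stained with Annexin V Alexa Fluor488, 7AAD and MitoSense Red to assess membrane state, DNA and mitochondrial membrane integrity, distinguishing apoptosis from necrosis; lower MitoSense Red fluorescence marks mitochondrial damage.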

The test system of another test is Jurkat tumor cells. Kind of test: Release of cytochrome c from mitochondria (anti-cytochrome C FITC, cytofluorimetry). The conditions noted are these: compound at IC50, incubation 3 h. On the procedure:
Staurosporine (an inhibitor of most kinases in the cell) was taken as a control compound.
Figure 2 Release of cytochrome C from mitochondria under the influence of ionic liquids in Jurkat tumor cells. Anti-cytochrome C FITC antibodies were used for staining. […] Incubation with test compounds was 3 h. TEXT PRINTED IN THE PICTURE: (b) 344: Negative 30.82%; Positive 64.67% | (c) 214: Negative 40.58%; Positive 56.16% | (d) 346: Negative 19.43%; Positive 76.96% DOUBTS OF THE COPYIST ABOUT THIS PICTURE: The picture prints only sample codes (344, 214, 346; each followed by '/ E3'), not compound numbers or names; these codes are used as labels. / Panel a (sample code 211-4h, Negative 5.82%, Positive 93.68%) appears to be an untreated control, not a substance, and is left out. / Print is small: b, Negative 30.82% (8 or 6); c, Positive 56.16% (6 or 8); d, Positive 76.96% (6 or 8, 9 or 8).

Test [2] relates to Jurkat cells. Kind of test: Cell cycle analysis (Guava Cell Cycle Reagent). The conditions noted are these: IC50 concentration, 24 h, flow histogram. On the procedure: Our findings are consistent with the literature data that many ICs predominantly affect the G2 and S phases, reducing them.
The incubation time of ionic liquids with cells was 24 h. […] It is listed because the picture prints the label with values. / The fit parameters printed in each histogram (RMS, Mean G1, Mean G2, G2/G1, CV G1, CV G2) were left out as statistics of the cell-cycle model.

With `CC1(C)CC[C@]2(C(=O)OCCCCCC[n+]3ccccc3)CC[C@]3(C)C(=CCC4[C@@]5(C)CC[C@H](O)C(C)(C)C5CC[C@]43C)C2C1` (stereo partly drawn) [12a, 1-(6-{[(3β)-3-Hydroxyolean-12-en-28-oyl]oxy}hexyl)-pyridinium bromide], the “expression of p53 protein” value with p53 is listed as “significantly increased”. Further, in the test on Jurkat cells [1], the “Apoptosis (%) Early” value was 0%, the “Apoptosis (%) Late” value was 22.63%, the “Apoptosis (%) Necrosis” value is 65.18% and the “percentage of cells in the apoptotic state” value came to 87.81%. Further, the “cytochrome c release from mitochondria (cytochrome C Negative cells)” value in the test on Jurkat tumor cells is listed as 40.58%.

Regarding `CC(=O)[O-].C[n+]1ccn(CCCCCCOC(=O)[C@]23CCC(C)(C)CC2C2=CCC4[C@@]5(C)CC[C@H](O)C(C)(C)C5CC[C@@]4(C)[C@]2(C)CC3)c1` (stereo partly drawn) [13d, 1-(6-{[(3β)-3-Hydroxyolean-12-en-28-oyl]oxy}hexyl)-3-methylimidazolium Acetate], the “expression of p53 protein” value with p53 is recorded as “significantly increased”. Also, in the test with Jurkat cells [1], the “Apoptosis (%) Early” value was 11.00%, the “Apoptosis (%) Necrosis” value is given as 85.0% and the “percentage of cells in the apoptotic state” value was 98.32%. The “Freq Sub-G1 (hypodiploid cell population)” value in the test with Jurkat cells [2] came out at 6.91%. Further, in the test with Jurkat tumor cells, the “cytochrome c release from mitochondria (cytochrome C Negative cells)” value worked out at 19.43%.
